# Experimental data as given in patent US5880256A, “Factor VIIa inhibitors from Kunitz domain proteins” (Genentech, Inc., priority 1995, dated 1999).
# Positions of bridges follow the written chain, without caps; N, C: chain ends. No end group written: not given here.
# Tests used:
# [1] = system: New Zealand white rabbits; test: Cuticle bleeding time in the rabbit model; type: in vivo; details: for bleeding compared to the saline control (in words): after 10 minutes
# Description: Male New Zealand white rabbits (~4 kg) were anesthetized to surgical anesthesia plane with an IM injection of Ketamine / Xylaxine. The rabbits were placed supine on a restraining board, warmed to 37° C., and the neck and inner thigh area shaved. Teflon catheters were replaced in a marginal ear vein and femoral artery for drug delivery and sample collection respectively. Prior to treatment, blood samples were collected for coagulation tests (APTT and PT). Bleeding time was assessed from a cut made in the cuticle portion of a hind limb nail. Incisions were made in the neck region and the entire left common carotid artery and its branches were surgically isolated. An ultrasonic flow probe (Transonics®) was placed on the common carotid approximately 5 cm caudal to the common--internal bifurcation. After blood flow reached a stable baseline, drugs (saline or test compounds) were delivered via the marginal ear vein. A deflated embolectomy catheter (Fogarty®, 3F) was then introduced into the lumen of the common via an incision in the lingual branch. Blood flow through the artery was stopped briefly while the catheter was introduced and loosely secured with 2-0 silk tie at the incision site. After the catheter was in place and secure, blood flow was restored. The deflated balloon was advanced to within 2 mm of the flow probe and inflated with saline until resistance of the vessel wall was felt. The catheter was pulled back with a steady motion to the first branch and then deflated. This procedure was repeated a total of six times for each experimental animal, after which the catheter was removed. […] Over 40 minutes, blood samples were taken for APTT and PT measurements, cuticle bleeding times were assessed and blood flow through the carotid monitored. Duration of patency was defined as the total amount of time (maximum=40 minutes) that any measurable blood flow is detected in the artery. Patency rate refers to the percentage of animals tested who had carotid artery blood flow≥5 minutes. […] If any thrombus was present, it was removed, blotted and the weight recorded. […]
# [2] = system: New Zealand white rabbits; test: Rabbit deep medial injury model (carotid artery patency, thrombus weight); type: in vivo
# Description: Male New Zealand white rabbits (~4 kg) were anesthetized to surgical anesthesia plane with an IM injection of Ketamine / Xylaxine. The rabbits were placed supine on a restraining board, warmed to 37° C., and the neck and inner thigh area shaved. Teflon catheters were replaced in a marginal ear vein and femoral artery for drug delivery and sample collection respectively. Prior to treatment, blood samples were collected for coagulation tests (APTT and PT). Bleeding time was assessed from a cut made in the cuticle portion of a hind limb nail. Incisions were made in the neck region and the entire left common carotid artery and its branches were surgically isolated. An ultrasonic flow probe (Transonics®) was placed on the common carotid approximately 5 cm caudal to the common--internal bifurcation. After blood flow reached a stable baseline, drugs (saline or test compounds) were delivered via the marginal ear vein. A deflated embolectomy catheter (Fogarty®, 3F) was then introduced into the lumen of the common via an incision in the lingual branch. Blood flow through the artery was stopped briefly while the catheter was introduced and loosely secured with 2-0 silk tie at the incision site. After the catheter was in place and secure, blood flow was restored. The deflated balloon was advanced to within 2 mm of the flow probe and inflated with saline until resistance of the vessel wall was felt. The catheter was pulled back with a steady motion to the first branch and then deflated. This procedure was repeated a total of six times for each experimental animal, after which the catheter was removed. […] Over 40 minutes, blood samples were taken for APTT and PT measurements, cuticle bleeding times were assessed and blood flow through the carotid monitored. Duration of patency was defined as the total amount of time (maximum=40 minutes) that any measurable blood flow is detected in the artery. Patency rate refers to the percentage of animals tested who had carotid artery blood flow≥5 minutes. At the end of the experiment the rabbit was euthanized and the carotid artery removed and opened. If any thrombus was present, it was removed, blotted and the weight recorded.
# [Heparin was dosed as a 25 u/kg bolus followed by a continuous infusion of 1) 0.5 u/kg/min or 2) 1 u/kg/min. Other reagents were given as a 2 mg/kg IV bolus. With the exception of the patency data, values are expressed as means ±sem.]
# normal human plasma = test: Activated partial thromboplastin time (APTT) assay, initiated by ellagic acid; type: biochemical
# Description: For the activated partial thromboplastin time (APTT) assays, the activation time was set at 120 sec and acquisition time at 300 to 600 sec depending on the expected outcome of the assay. Citrated normal human plasma and inhibitor were incubated together. The sample (plasma and inhibitor) and activator (Instrumentation Laboratories Ellagic acid/Phospholipid mix Test Reagent) were automatically pipetted and incubated together for 2 min at 37° C., then CaCl2 was added and clotting time determined by means of optical assessment. The total incubation time of inhibitor with plasma was ca. 3 min before addition of activator, and 5 min before addition of CaCl2.
compound,measurement,setting,value
"APPI: Alzheimer's amyloid β-protein precursor inhibitor, 58 residue Kunitz domain, wild type (SEQ ID NO: 34) (VREVCSEQAETGPCRAMISRWYFDVTEGKCAPFFYGGCGGNRNNFDTEEYCMAVCGSA)","Cuticle bleeding time, fold increase over pre dose","[1]; in vivo, iv, 2 mg/kg",2.2 ± 0.6 fold
same,Patency (%),"[2]; rabbit, 2 mg/kg IV bolus, animals with carotid blood flow ≥5 minutes",40%
same,Patency Duration,"[2]; rabbit, 2 mg/kg IV bolus, maximum 40 minutes, mean ± sem",13.4 ± 8.5 min
same,Clot (mgs),"[2]; rabbit, 2 mg/kg IV bolus, thrombus weight, mean ± sem",49.5 ± 18.2 mgs
same,"APTT clotting time, fold prolongation","normal human plasma; 40 μM inhibitor, uninhibited clotting time 31 s",3.6 fold
same,"APTT clotting time, fold prolongation",normal human plasma; ca. 7 μM inhibitor,ca. 3 fold
Heparin,patency and clot size compared to the saline control (in words),[2]; rabbit deep medial injury model,significantly prolonged patency and reduced clot size
same,Patency (%),"[2]; rabbit, Heparin 1: 25 u/kg bolus then 0.5 u/kg/min infusion",67%
same,Patency Duration,"[2]; rabbit, Heparin 1: 25 u/kg bolus then 0.5 u/kg/min infusion, mean ± sem",23.3 ± 6.7 min
same,Patency (%),"[2]; rabbit, Heparin 2: 25 u/kg bolus then 1 u/kg/min infusion",100%
same,Patency Duration,"[2]; rabbit, Heparin 2: 25 u/kg bolus then 1 u/kg/min infusion, mean ± sem",35.2 ± 2.2 min
CC[C@H](C)[C@@H]1NC(=O)[C@H](CC(C)C)NC(=O)[C@H](C)NC(=O)[C@H](CCCNC(=N)N)NC(=O)[C@@H]2CSSC[C@@H]3NC(=O)CNC(=O)CNC(=O)[C@H](Cc4ccc(O)cc4)NC(=O)[C@H](Cc4ccccc4)NC(=O)[C@H](Cc4ccccc4)NC(=O)[C@@H]4CCCN4C(=O)[C@H](C)NC(=O)[C@H](CSSC[C@H](NC(=O)[C@H](Cc4ccc(O)cc4)NC(=O)[C@H](CCC(=O)O)NC(=O)[C@H](CCC(=O)O)NC(=O)[C@H]([C@@H](C)O)NC(=O)[C@H](CC(=O)O)NC(=O)[C@H](Cc4ccccc4)NC(=O)[C@H](CC(N)=O)NC(=O)[C@H](CC(N)=O)NC(=O)[C@H](CCCNC(=N)N)NC(=O)[C@H](CC(N)=O)NC(=O)CNC(=O)[C@H](Cc4ccc(O)cc4)NC3=O)C(=O)N[C@@H](C)C(=O)N[C@@H](C)C(=O)N[C@@H](C(C)C)C(=O)N[C@H](C(=O)NCC(=O)N[C@@H](CO)C(=O)N[C@@H](C)C(=O)O)CSSC[C@H](NC(=O)[C@@H](NC(=O)[C@H](CCC(=O)O)NC(=O)[C@H](CCCNC(=N)N)NC(=O)[C@@H](N)C(C)C)C(C)C)C(=O)N[C@@H](CO)C(=O)N[C@@H](CCC(=O)O)C(=O)N[C@@H](CCC(N)=O)C(=O)N[C@@H](C)C(=O)N[C@@H](CCC(=O)O)C(=O)N3CCC[C@H]3C(=O)NCC(=O)N3CCC[C@H]3C(=O)N2)NC(=O)[C@H](CCCCN)NC(=O)CNC(=O)[C@H](CCC(=O)O)NC(=O)[C@H]([C@@H](C)O)NC(=O)[C@H](C(C)C)NC(=O)[C@H](CC(=O)O)NC(=O)[C@H](Cc2ccccc2)NC(=O)[C@H](Cc2ccc(O)cc2)NC(=O)[C@H](Cc2c[nH]c3ccccc23)NC(=O)[C@H](CCCNC(=N)N)NC(=O)[C@H](CC(C)C)NC1=O [TF7I-C],bleeding compared to the saline control (in words),[1],did not induce prolonged bleeding
"VREVCSEQAEPGPCRAMMKRWYFDVTEGKCAPFIYGGCYGNRNNFDTEEYCAAVCGSA (disulfide 5-55, 14-38, 30-51) [IV-49C]",bleeding compared to the saline control (in words),[1],did not induce prolonged bleeding
